Test results taken from patent publication US20130143902A1, “COMPOSITIONS AND METHODS OF TREATING A PROLIFERATIVE DISEASE WITH A QUINAZOLINONE DERIVATIVE” (GILEAD CALISTOGA LLC, priority 2011, published 2013).
Values joined by “and” are separate entries in the source; they are usually repeats but may differ in a detail not shown here. Equal values may be shown once. Read-outs that look alike come from different tables or passages of the source.

Key:
LN229 [1] = experiment: pAkt pathway inhibition, LN229; type: cell-based; settings: Homo sapiens, LN-229; LN229, Glioma
OVCAR-3 [2] = experiment: Viability (AlamarBlue), OVCAR-3; type: cell-based; settings: Homo sapiens; OVCAR-3, Ovarian
Experimental: (§1) For primary T-ALL samples, cell viability was determined using the BD Cell Viability kit (BD Biosciences) and fluorescent counting beads as previously described in Armstrong, F. et al., NOTCH is a key regulator of human T-cell acute leukemia initiating cell activity, Blood 113, 1730-1740 (2009). Cells were plated with MS5-DL1 stroma cells. After 72 hours following treatment, cells were harvested and stained with an APC-conjugated anti-human CD45 according to the manufacturer's instructions. For solid tumor cell lines, cellular viability was determined using the AlamarBlue kit (Invitrogen). About 10,000 cells in 100 μL of media containing 10% FBS were aliquoted into individual wells of a 96-well plate and treated with vehicle (DMSO) or compound in triplicate for 24 hours. Ten μL of AlamarBlue reagent was added to each well and incubated for 4 hours at 37° C. with 5% CO2. Fluorescence was measured with an excitation wavelength at 530 to 560 nm and emission wavelength at 590 nm using Spectramax M5 plate reader (Molecular Devices, Sunnyvale, Calif.).

LN229 [3] = experiment: Viability (AlamarBlue), LN229; type: cell-based; settings: Homo sapiens, LN-229; LN229, Glioma
Experimental: as §1

PC3 = experiment: Viability (AlamarBlue), PC3; type: cell-based; settings: Homo sapiens, PC-3; PC3, Prostate
Experimental: as §1

Solid tumor = experiment: Cellular viability, solid tumor; type: cell-based; settings: N = 14
Experimental: as §1
(§2) Cellular viability and pAkt activity were used to determine effects of Compounds A, C, and D in solid tumor, B-cell malignancies, and T-cell malignancies.

LNCaP = experiment: Viability (AlamarBlue), LNCaP; type: cell-based; settings: Homo sapiens, Prostate
Experimental: as §1

Mouse PK = type: in vivo; settings: plasma, PO 20 mg/kg
Description: The pharmacokinetics of Compound A in mouse and dogs were also examined. […] The results of Tmax (time of maximum observed concentration), Cmax (maximum concentration in plasma measured), AUC (area under the curve for plasma concentration versus time), Cl (total body clearance), and Vz (volume of distribution) were summarized in Table 4. As used herein, the mark ‘-’ represents data not relevant. AUC is shown as the unit of ng*h/mL (ng=nanograms, h=hour, mL=milliliter); ng are multiplied by h, and the value is divided by the volume in mL.

primary T-ALL tumors = experiment: Viability of primary T-ALL tumors; type: cell-based, human; settings: 1.0, 2.5, and 5.0 μM, 72 hours
Experimental: Cryopreserved samples from the Columbia Presbyterian Hospital, the Erasmus MC-Sophia Children's Hospital, and the University of Padua were used. All samples were collected with informed consent and supervised by the institutes' review boards and the Acute Lymphoblastic Leukemia Strategic Scientific Committee.
as §1, with “Calif.). […]” for “Calif.).”

T Cell Malignancies = experiment: Cellular viability, T cell malignancies; type: cell-based; settings: N = 7
Description: as §2

U87MG = experiment: Viability (AlamarBlue), U87MG; type: cell-based; settings: Homo sapiens, U-87 MG, Glioma
Experimental: as §1

[4] = In vivo PK (cannulated rat, IV and PO); settings: for half-life: read-out: T½ (converted)
IGROV-1 = experiment: pAkt pathway inhibition, IGROV-1; type: cell-based; settings: Homo sapiens; IGROV-1, Ovarian
LN18 [5] = experiment: Viability (AlamarBlue), LN18; type: cell-based; settings: Homo sapiens, LN-18; LN18, Glioma
Experimental: as §1

786-0 [6] = experiment: Viability (AlamarBlue), 786-0; type: cell-based; settings: Homo sapiens; 786-0, Renal
Experimental: as §1

786-0 [7] = experiment: pAkt pathway inhibition, 786-0; type: cell-based; settings: Homo sapiens; 786-0, Renal
OVCAR-3 [8] = experiment: pAkt pathway inhibition, OVCAR-3; type: cell-based; settings: Homo sapiens; OVCAR-3, Ovarian
LN18 [9] = experiment: pAkt pathway inhibition, LN18; type: cell-based; settings: Homo sapiens, LN-18; LN18, Glioma
VCaP = experiment: pAkt pathway inhibition, VCaP; type: cell-based; settings: Homo sapiens, Prostate
UACC-62 = experiment: pAkt pathway inhibition, UACC-62; type: cell-based; settings: Homo sapiens; UACC-62, Melanoma
22Rv1 = experiment: Viability (AlamarBlue), 22Rv1; type: cell-based; settings: Homo sapiens; 22Rv1, Prostate
Experimental: as §1

BT549 = experiment: pAkt pathway inhibition, BT549; type: cell-based; settings: Homo sapiens, BT-549; BT549, Breast
MDA-MB-468 = experiment: pAkt pathway inhibition, MDA-MB-468; type: cell-based; settings: Homo sapiens; MDA-MB-468, Breast
[10] = IV 1 mg/kg, individual rats, 1 mg/kg
[11] = rat, plasma, iv, 1 mg/kg, IV 1 mg/kg, individual rats
[12] = rat, plasma, iv, 1 mg/kg, IV 1 mg/kg, mean of 3 rats
[13] = rat, plasma, po, 3 mg/kg, PO 3 mg/kg, individual rats
[14] = rat, plasma, po, 3 mg/kg, PO 3 mg/kg, mean of 3 rats
[15] = rat, plasma, po, 30 mg/kg, PO 30 mg/kg, individual rats
[16] = rat, plasma, po, 30 mg/kg, PO 30 mg/kg, mean of 3 rats

Structure (SMILES): CC(Nc1ncnc2[nH]cnc12)c1nc2cccc(Cl)c2c(=O)n1-c1ccccc1 (stereo not drawn) [Compound A, 2-(1-(9H-purin-6-ylamino)ethyl)-5-chloro-3-phenylquinazolin-4(3H)-one]
- EC50 (LN229 [1]): 10 nM
- GI50 (OVCAR-3 [2]): 850 nM
- GI50 (LN229 [3]): 3000 nM
- GI50 (PC3): 2400 nM
- EC50 (Solid tumor): 1700 nM
- GI50 (LNCaP): 220 nM
- AUC (Mouse PK): 1500 ng·h/mL
- Cmax (Mouse PK): 1280 ng/mL
- Tmax (Mouse PK): 0.25 h
- viability of tumor cells (primary T-ALL tumors): reduced viability
- EC50 (T Cell Malignancies): 2400 nM
- GI50 (U87MG): 2500 nM
- Vss [4, 10]: 1.32 L/kg and 1.674 L/kg
- Vz [4, 10]: 5.849 L/kg and 1.768 L/kg
- Bioavailability ([4]; PO 3 mg/kg, individual rats (Rat 1, 2, 3), 3 mg/kg): 81% and 37%
- Cmax ([4]; PO 3 mg/kg, individual rats, 3 mg/kg): 457 ng/mL and 345 ng/mL
- Bioavailability ([4]; PO 30 mg/kg, individual rats (Rat 4, 5, 6), 30 mg/kg): 138% and 128% and 87%
- Cmax ([4]; PO 30 mg/kg, individual rats, 30 mg/kg): 5770 ng/mL and 4320 ng/mL
- AUC ([4]; plasma, Rat, PO 3 mg/kg (Table 4)): 2000 ng·h/mL
- clearance ([4]; rat, plasma, iv, 1 mg/kg, IV 1 mg/kg (Table 4)): 15.2 mL/min/kg
- AUC(0-inf) [4, 11]: 1050 ng·h/mL
- AUC(0-t) [4, 11]: 1040 ng·h/mL
- Vd ([4]; rat, plasma, iv, 1 mg/kg, IV 1 mg/kg, individual rats, read-out: Vss): 2.64 L/kg
- AUC(0-inf) [4, 12]: 1130 ng·h/mL
- AUC(0-t) [4, 12]: 1100 ng·h/mL
- Vd ([4]; rat, plasma, iv, 1 mg/kg, IV 1 mg/kg, mean of 3 rats, read-out: Vss): 1.88 L/kg
- Vd ([4]; rat, plasma, iv, 1 mg/kg, IV 1 mg/kg, mean of 3 rats, read-out: Vz): 2.99 L/kg
- Vd ([4]; rat, plasma, iv, 1 mg/kg, Rat, IV 1 mg/kg (Table 4), read-out: Vz): 2.99 L/kg
- Tmax ([4]; rat, plasma, po, 3 mg/kg, PO 3 mg/kg (Table 4)): 1.3 h
- Tmax [4, 13]: 1 h
- Cmax ([4]; rat, plasma, po, 3 mg/kg, PO 3 mg/kg, individual rats, read-out: Cmax): 568 ng/mL
- half-life [4, 13]: 2.9 h
- AUC(0-inf) [4, 14]: 2010 ng·h/mL
- AUC(0-t) [4, 14]: 2000 ng·h/mL
- Bioavailability ([4]; rat, plasma, po, 3 mg/kg, PO 3 mg/kg, mean of 3 rats, read-out: Bioavailability): 59%
- Cmax ([4]; rat, plasma, po, 3 mg/kg, PO 3 mg/kg, mean of 3 rats, read-out: Cmax): 456 ng/mL
- Cmax ([4]; rat, plasma, po, 3 mg/kg, Rat, PO 3 mg/kg (Table 4), read-out: Cmax): 456 ng/mL
- AUC(0-inf) [4, 15]: 46800 ng·h/mL
- Tmax [4, 15]: 4 h
- Cmax ([4]; rat, plasma, po, 30 mg/kg, PO 30 mg/kg, individual rats, read-out: Cmax): 5800 ng/mL
- half-life [4, 15]: 2.27 h
- AUC(0-inf) [4, 16]: 40000 ng·h/mL
- AUC(0-t) [4, 16]: 40000 ng·h/mL
- Bioavailability ([4]; rat, plasma, po, 30 mg/kg, PO 30 mg/kg, mean of 3 rats, read-out: Bioavailability): 118%
- Cmax ([4]; rat, plasma, po, 30 mg/kg, PO 30 mg/kg, mean of 3 rats, read-out: Cmax): 5300 ng/mL
- time at which plasma levels peaked after administration ([4]; rats, single dose, over a period of 24 hours (data not shown)): 2 to 4 h
- EC50 (IGROV-1): 10 nM
- GI50 (LN18 [5]): 3500 nM
- GI50 (786-0 [6]): 5000 nM
- EC50 (786-0 [7]): 44 nM
- EC50 (OVCAR-3 [8]): 647 nM
- EC50 (LN18 [9]): 10 nM
- EC50 (VCaP): 1200 nM
- EC50 (UACC-62): 45 nM
- GI50 (22Rv1): 2300 nM
- EC50 (BT549): 34 nM
- EC50 (MDA-MB-468): 56 nM
